Measured values: patent US11236055B2 (Venenum Biodesign, LLC, priority 2016, dated 2022)

Columns and labels:
[1] = Pharmacokinetic profile in mice; type: in vivo; conditions: mouse; fasted male Hilltop mice, 10 mg/kg oral gavage, plasma, mean of three mice
Experimental: Pharmacokinetic Profile in Mice
In this series of studies, the pharmacokinetic profile characteristics of compounds of the present invention were evaluated. The plasma concentration levels of the compounds were monitored in the blood stream (i.e., plasma) after oral gavage using Cmax, and area under the curve (AUC).
8 week old male Hilltop mice were fasted overnight. Animals were randomized into groups (n=9) by body weight. Mice were dosed with 10 mg/kg compound (in 20% PEG400/80% 0.5% carboxymethylcellulose (medium viscosity)+0.25% Tween-80) at a volume of 10 mL/kg through oral gavage. Blood was collected via orbital bleeding at 0, 0.25, 0.5, 1, 2, and 4 h post-dose, with no one mouse having more than 3 blood draws. Blood was collected in EDTA coated tubes. Samples were stored at −20° C. until analysis.
Quantitation of compound levels in plasma was accomplished by LC-MS/MS analysis. Standard curve and quality control samples were prepared in male CD-1 mouse plasma containing EDTA K^2+ as an anticoagulant at final concentrations ranging from 500 to 0.1 ng/mL. The plasma samples, calibration curve standards, and quality control samples were prepared in an identical method in a 96-well deep plate (1 mL) with a quenching solution (1:1 mixed acetonitrile:methanol containing the internal standard Reserpine @ 400 ng/mL). Low volume samples were supplemented with CD-1 mouse plasma. The plate was mixed on multi-tube votex for 1 min and centrifuged at 4000 rpm for 30 min at 4° C. (Sorvall® Super T21) before LC-MS/MS analysis. LC conditions were developed and optimized based on each compound as needed. The outlet of the column was coupled to AB Sciex 4000 QTrap Mass Spectrometer (AB Sciex, Brugg Switzerland). Detection was carried out using multiple reaction monitoring mode with positive-ion detection focusing. The pharmacokinetic parameters were derived from the plasma-time data and calculated using the standard non-compartmental method with WinNonlin (Pharsight, Mountain View, Calif.) or PK Solver (Comp. Meth. Prog. Biomed. (2010), 99, 306-314).
Values reported are the mean plasma concentration of three mice.

mouse TGR5 receptor [2] = target: T1, mouse TGR5 receptor (Mus musculus, UniProt Q80SS6); experiment: Mouse TGR5 cAMP production assay (HTRF, Cisbio cAMP HiRange); type: cell-based; conditions: HEK293-EBNA cells overexpressing mouse TGR5, HTRF cAMP HiRange; coded A-D
T1 construct: expressed in transfected cells; host or cells: HEK293-EBNA (293 c18, ATCC CRL10852), Hygromycin B selection
T1 sequence (Q80SS6 1-329): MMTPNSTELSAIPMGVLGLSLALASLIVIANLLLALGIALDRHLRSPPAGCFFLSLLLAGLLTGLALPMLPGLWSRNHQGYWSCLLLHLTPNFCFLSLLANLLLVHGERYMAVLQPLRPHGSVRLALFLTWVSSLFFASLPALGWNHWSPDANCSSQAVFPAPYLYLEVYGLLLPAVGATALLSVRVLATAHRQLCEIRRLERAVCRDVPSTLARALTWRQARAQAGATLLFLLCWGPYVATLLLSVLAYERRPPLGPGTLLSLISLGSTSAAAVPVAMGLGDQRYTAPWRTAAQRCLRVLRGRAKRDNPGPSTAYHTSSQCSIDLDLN
In short: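 cAMP read by HTRF competition after 1 h room-temperature compound exposure of mouse TGR5-overexpressing HEK293-EBNA cells. Cells were suspended in serum-free DMEM containing 500 μM IBMX; compounds ran as 12-point half-log dilutions in duplicate; EC50 derived.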

human TGR5 receptor = target: T2, human TGR5 receptor (Homo sapiens, UniProt Q8TDU6); experiment: Human TGR5 cAMP production assay; type: cell-based; conditions: human TGR5, luminescent cAMP assay; coded A-D; read-out: Human TGR5 Lum. cAMP Activity (EC50)
T2 construct: host or cells: CHO-K1 (hTGR5-CHO cells)
T2 sequence (Q8TDU6 1-330): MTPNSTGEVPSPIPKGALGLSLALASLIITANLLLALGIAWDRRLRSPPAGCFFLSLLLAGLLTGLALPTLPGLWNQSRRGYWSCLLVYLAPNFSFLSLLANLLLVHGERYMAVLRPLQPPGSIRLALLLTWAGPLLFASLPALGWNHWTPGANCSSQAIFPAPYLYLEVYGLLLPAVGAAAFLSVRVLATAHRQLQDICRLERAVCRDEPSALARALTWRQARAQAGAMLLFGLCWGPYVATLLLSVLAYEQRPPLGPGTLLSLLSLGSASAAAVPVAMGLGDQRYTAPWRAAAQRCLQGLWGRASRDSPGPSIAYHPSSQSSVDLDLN
In short: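 CHO-K1 cells stably expressing human TGR5, with IBMX and cAMP antibody, were exposed to half-log serially diluted compound for 1 h at room temperature. cAMP measured by enzyme-fragment complementation luminescence (XS+ kit) after overnight incubation; EC50 values reported.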

mouse TGR5 receptor [3] = target: T1, mouse TGR5 receptor; experiment: Mouse TGR5 cAMP production assay (luminescent, DiscoveRx cAMP XS+); type: cell-based; conditions: HEK293-EBNA cells overexpressing mouse TGR5, luminescent cAMP XS+; coded A-D; read-out: Mouse TGR5 Lum. cAMP Activity (EC50)
Source text: Mouse TGR5 cAMP Production Assay
We evaluated compounds of the present invention for their ability to induce cAMP production in HEK-EBNA cells overexpressing the mouse TGR5 receptor. Human embryonic kidney cells (HEK293-EBNA) stably expressing mouse TGR5 receptor were established using the following procedure. Specifically, a commercially-obtained gene encoding mouse TGR5 (accession number BC116914) from Thermo Scientific (Waltham, Mass.) was cloned into an episomal expression vector. The resulting expression plasmid was then transfected into 293 c18 (ATCC® CRL10852™) cells, which express the Epstein-Barr virus nuclear antigen EBNA1 and can support the replication of episomal vectors. Selection for the plasmid was maintained with Hygromycin B. Cells were cultured and maintained in DMEM (Sigma; cat #6429) supplemented with 10% Fetal Bovine Serum, 1% penicillin/streptomycin, 2 mM L-alanine L-glutamine (GlutaMax), and 250 μg/mL Hygromycin.
Two cAMP production assays were developed.
1. Luminescent cAMP Production Assay
In this first cAMP production assay, the cAMP production was measured using DiscoveRx's cAMP XS+ kit following the manufacturer's recommended protocol.
Briefly, HEK293-EBNA cells stably overexpressing mouse TGR5 were harvested using non-enzymatic cell dissociation buffer (Sigma-Aldrich, St. Louis, Mo.), spun down, then resuspended in serum-free DMEM with 500 μM IBMX at a density of 1.25×10^6 cells/mL. 500 μL of cAMP antibody solution was added to […] of cell suspension and incubated at room temperature for 20 min.
Test compounds were serially diluted (half-log dilutions) in DMSO and then further diluted 1:50 in PBS, 10 mM HEPES buffer. 2 μL of serially diluted compound was added to a 384-well low volume plate (Greiner cat #784075) and centrifuged briefly. 2 μL of the cell/cAMP antibody mixture was then added to each compound-containing well and allowed to incubate at room temperature for one (1) hour. Following incubation, the XS+ kits' ED/Lysis/CL Substrate Working Solution was prepared following the manufacturer's recommended protocol and 4 μL was added to each well of the plate. The plate was then incubated for one (1) hour at room temperature. Following incubation, 4 μL of (Enzyme Acceptor) EA reagent was added to the plate and allowed to incubate overnight at room temperature. Luminescent signal was then detected using the Viewlux instrument (Perkin-Elmer, Waltham, Mass.).
In Table 33, EC50 values for both human and mouse cells were determined according to the TGR5 cAMP assays described above.

Structure (SMILES) | Cmax [1] [ng/mL] | EC50 (mouse TGR5 receptor [2]) [nM] | EC50 (human TGR5 receptor) [nM] | EC50 (mouse TGR5 receptor [3]) [nM]
CNC(=O)C[C@H](NS(=O)(=O)c1ccccc1C(F)(F)F)c1cccc(-c2ccncc2C)c1 [Compound 5AZ, (S)-N-methyl-3-(3-(3-methylpyridin-4-yl)phenyl)-3-(2-(trifluoromethyl)phenylsulfonamido)propanamide] | 2330 | 100 to 999 | 100 to 999 | –
Cc1cnccc1-c1cccc(C(C)(C)N(CCCN/C(=N\C#N)NCCC(=O)O)S(=O)(=O)c2cccc(Cl)c2C)c1 [Compound 25, (E)-3-(3-(3-((3-chloro-2-methyl-N-(2-(3-(3-methylpyridin-4-yl)phenyl)propan-2-yl)phenyl)sulfonamido)propyl)-2-cyanoguanidino)propanoic acid] | 3.1 | < 100 | < 100 | –
Cc1cncc(C)c1-c1cccc(C(C)(C)NS(=O)(=O)c2cccc(C(F)(F)F)c2)c1 [Compound 5AD, N-(2-(3-(3,5-dimethylpyridin-4-yl)phenyl)propan-2-yl)-3-(trifluoromethyl)benzenesulfonamide] | – | – | 1000 to 30000 | 1000 to 30000
COc1cccc(S(=O)(=O)NCc2cccc(-c3ccncc3)c2)c1 [Compound 2AL] | – | – | 1000 to 30000 | > 30000
O=S(=O)(NCc1ccc(F)c(-c2ccncc2)c1)c1cccc(C(F)(F)F)c1 [Compound 1AS] | – | – | 100 to 999 | 1000 to 30000
C[C@@H](NS(=O)(=O)c1cccc(C(F)(F)F)c1)c1cccc(-c2ccncc2F)c1 [Compound 1BD] | – | – | 100 to 999 | 1000 to 30000
Cc1noc(C)c1-c1cccc(CNS(=O)(=O)c2cccc(Cl)c2)c1 [Compound 2AA] | – | – | 1000 to 30000 | 1000 to 30000
Cc1cnccc1-c1cccc(CNS(=O)(=O)c2cccc(C(F)(F)F)c2)c1 [Compound 1BF] | – | – | 100 to 999 | 100 to 999
COc1cnccc1-c1cccc(C(C)(C)NS(=O)(=O)c2ccccc2Cl)c1 [Compound 2AX] | – | – | 100 to 999 | 100 to 999
O=S(=O)(NCc1cc(-c2ccncc2)ccc1F)c1cccc(C(F)(F)F)c1 [Compound 1AU] | – | – | 1000 to 30000 | 1000 to 30000
COc1cccc(S(=O)(=O)NCc2cccc(-c3c(C)noc3C)c2)c1 [Compound 2AB] | – | – | 1000 to 30000 | 1000 to 30000
COc1cnccc1-c1cccc(C(C)(C)NS(=O)(=O)c2cc(C(F)(F)F)ccc2OC)c1 [Compound 2AW] | – | – | 1000 to 30000 | 1000 to 30000
Cc1cnccc1-c1cccc([C@@H](C)NS(=O)(=O)c2cccc(C(F)(F)F)c2)c1 [Compound 5AH, (R)-N-(1-(3-(3-methylpyridin-4-yl)phenyl)ethyl)-3-(trifluoromethyl)benzenesulfonamide] | – | – | < 100 | 100 to 999
Cc1noc(C)c1-c1cccc(CNS(=O)(=O)c2ccccc2C(F)(F)F)c1 [Compound 2AC] | – | – | 1000 to 30000 | 1000 to 30000
COc1cnccc1-c1cccc([C@H](C)NS(=O)(=O)c2ccccc2[N+](=O)[O-])c1 [Compound 2BP] | – | – | < 100 | 100 to 999

Results, then the compound that gave them:

Cmax [1] [ng/mL] | EC50 (mouse TGR5 receptor [2]) [nM] | EC50 (human TGR5 receptor) [nM] | EC50 (mouse TGR5 receptor [3]) [nM] | Structure (SMILES)
647 | < 100 | < 100 | – | CCc1cnccc1-c1cccc(C2CN(CCCC(=O)O)CCN2S(=O)(=O)c2cccc(Cl)c2C)c1 (centres unmarked) [Compound 52AA, 4-(4-((3-chloro-2-methylphenyl)sulfonyl)-3-(3-(3-ethylpyridin-4-yl)phenyl)piperazin-1-yl)butanoic acid]
35.8 | < 100 | < 100 | – | Cc1cnccc1-c1cccc(C(C)(C)N(CCCNC(=O)CS(=O)(=O)O)S(=O)(=O)c2cccc(Cl)c2C)c1 [Compound 31AB, 2-((3-(3-chloro-2-methyl-N-(2-(3-(3-methylpyridin-4-yl)phenyl)propan-2-yl)phenylsulfonamido)propyl)amino)-2-oxoethanesulfonic acid]
269 | < 100 | < 100 | – | Cc1cnccc1-c1cccc(C(C)(C)N(CCCC(=O)NCC(N)=O)S(=O)(=O)c2cccc(Cl)c2C)c1 [Compound 21AC, N-(2-amino-2-oxoethyl)-4-(3-chloro-2-methyl-N-(2-(3-(3-methylpyridin-4-yl)phenyl)propan-2-yl)phenylsulfonamido)butanamide]
4.5 | < 100 | < 100 | – | CCc1cnccc1-c1cccc(C2CN(C(=O)COCC(=O)O)CCN2S(=O)(=O)c2cccc(Cl)c2C)c1 (centres unmarked) [Compound 46AB, 2-(2-(4-((3-chloro-2-methylphenyl)sulfonyl)-3-(3-(3-ethylpyridin-4-yl)phenyl)piperazin-1-yl)-2-oxoethoxy)acetic acid]
128 | < 100 | < 100 | – | Cc1cnccc1-c1cccc(C(C)(C)N(CCCC(=O)NCCS(N)(=O)=O)S(=O)(=O)c2cccc(Cl)c2C)c1 [Compound 20AE, 4-(3-chloro-2-methyl-N-(2-(3-(3-methylpyridin-4-yl)phenyl)propan-2-yl)phenylsulfonamido)-N-(2-sulfamoylethyl)butanamide]
478 | 100 to 999 | < 100 | – | Cc1cnccc1-c1cccc(C2(N(CCCC(=O)NCCS(=O)(=O)O)S(=O)(=O)c3cccc(Cl)c3C)COC2)c1 [Compound 20BN, 2-(4-(3-chloro-2-methyl-N-(3-(3-(3-methylpyridin-4-yl)phenyl)oxetan-3-yl)phenylsulfonamido)butanamido)ethanesulfonic acid]
